Experimental data reported in patent US20240279202A1 (NURIX THERAPEUTICS, INC., priority 2021, published 2024).
Structures can show the parent of a compound that is named as a salt.

Biological target: T1, ITK (Mus musculus, UniProt Q03526)
T1 construct: mice were sacrificed and splenocytes were isolated and used to prepare protein lysates; from tissue; host or cells: mouse splenocytes (spleen) after oral dosing
T1 sequence (Q03526 1-625): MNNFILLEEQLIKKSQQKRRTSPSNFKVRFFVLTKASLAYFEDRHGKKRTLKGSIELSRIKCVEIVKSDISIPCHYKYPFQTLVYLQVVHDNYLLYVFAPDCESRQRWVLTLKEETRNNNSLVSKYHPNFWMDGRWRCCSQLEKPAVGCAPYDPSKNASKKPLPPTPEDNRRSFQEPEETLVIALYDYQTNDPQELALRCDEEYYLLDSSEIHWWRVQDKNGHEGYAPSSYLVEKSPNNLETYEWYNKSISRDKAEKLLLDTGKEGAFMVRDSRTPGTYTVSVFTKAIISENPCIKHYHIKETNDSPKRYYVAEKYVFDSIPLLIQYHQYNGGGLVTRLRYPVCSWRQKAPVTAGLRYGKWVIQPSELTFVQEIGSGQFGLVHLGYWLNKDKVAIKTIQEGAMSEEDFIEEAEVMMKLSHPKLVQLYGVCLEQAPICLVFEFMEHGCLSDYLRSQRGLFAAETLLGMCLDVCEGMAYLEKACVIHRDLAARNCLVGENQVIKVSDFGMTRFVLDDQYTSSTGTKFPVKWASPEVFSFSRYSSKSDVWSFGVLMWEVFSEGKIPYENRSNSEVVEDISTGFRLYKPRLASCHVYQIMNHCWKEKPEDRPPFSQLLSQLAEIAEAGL
Test: Mouse PD assay for ITK degradation (Western blot, splenocytes after oral administration)
Format: in vivo
Settings: for ITK (%) 90 mpk PO, 6 h: percent ITK remaining in mouse splenocytes relative to vehicle; for ITK degradation in vivo at 6 hours (FIG. 3A, FIG. 4A): oral
Protocol: Compounds 1, 3, 7, and 42 were formulated and administered at 90 mg/kg to mice by oral gavage (PO). Blood was collected at defined time points (after 1, 2, and 6 hours) after compounds administration to determine PK parameters. Concentration increased through 6 hours. Six hours later mice were sacrificed and splenocytes were isolated and used to prepare protein lysates. Total protein levels were determined in the lysates using the BCA assay according to standard methods. Equal amounts of protein were then analyzed by Western blot to determine the level of ITK expression in each sample. ITK band intensities were measured using Alpha View software and the percent of ITK remaining in each test animal was determined relative to the mean of ITK levels in vehicle control samples.
After 6 hours, splenocytes cells were harvested. ITK was evaluated by Western blotting.
Compounds 43, 4, 5, 10, 11, 12, 44, 14, 3, and 13 were administered to mice orally. After 6 hours, splenocytes cells were harvested. ITK was evaluated by Western blotting. Media was removed and cell pellets were lysed in 100 uL lysis buffer (RIPA buffer (Fisher, PI89901), cOmplete Mini EDTA-free protease inhibitor (Sigma 11836170001), Protease Inhibitor Cocktail (Sigma, P2714), Phosphatase Inhibitor Cocktail 2 and 3 (Sigma, P5726 and P0044), Benzonase (Sigma, E1014)). Cells were lysed overnight at −20° C. Following thaw, cells were centrifuged for 10 min at 13000 rpm, then transferred to new tube. Protein levels were determined by BCA Assay performed according to manufacturer's protocol (EMID Millipore, cat. no. 71285-3). Samples were combined with (4×) LDS Sample Buffer and (10×) Reducing Agent and H2O to equally load 20 ug protein per lane of a 26-well NuPAGE 4-12% Bis-Tris protein gel (1.0 mm, Thermo cat. no. NP0326). Samples were separated by running gels at constant 150 V in NuPAGE MES SDS Running Buffer. Following electrophoresis, proteins were transferred to nitrocellulose membranes using an iBlot Gel Transfer Device and iBlot Gel Transfer Stacks (Thermo cat. no. IB21001 and IB301001) and transfer method P3 (20V for 7 min). Membranes were blocked for 1 hr in 5% milk solution (TBS (0.2% Tween-20)). Following blocking, membranes were incubated with primary antibody (1:1000 CST ITK (2F12) #2380) overnight at 4° C. with gentle shaking. Blots were washed 2× in TBS (0.2% Tween-20), 30 min per wash. Following washes, blots were incubated in secondary HRP-conjugated antibody (Promega anti-Mouse IgG (H+L) HRP cat. no. W4021), 1:5000 in 5% milk solution (TBS (0.2% Tween-20)), for 1 hr at room temperature with gentle shaking. Blots were washed 2× in TBS (0.2% Tween-20), 30 min per wash. Blots were incubated with 1:1 mix of ECL reagents 1 & 2 (Amersham ECL Western Blotting Detection Reagent, cat. no. RPN2106) for 2 min at room temperature. Bands were visualized using a Protein Simple imager. Blots were then re-probed with a combination of anti-actin antibody (Sigma Monoclonal Mouse Anti-3-Actin (clone AC-15), cat. no. A5441) and secondary H1RP-conjugated antibody (Promega anti-Mouse IgG (H+L) HRP, cat. no. W4021) and similar steps were taken for incubation, wash, detection and visualization steps as above. The data was analyzed using Alpha View software. The densitometric reading for each sample band was normalized to that of the corresponding actin band per lane. Approximate % ITK remaining per sample was calculated as follows: […]
Once % ITK remaining has been calculated for each sample, groups are averaged together to show an means % ITK normalized to actin and relative to control.
Compounds 16, 17, and 18 were administered to mice orally. After 6 hours or 24 hours, splenocytes cells were harvested. ITK was evaluated by Western blotting. Plasma concentrations were determined by LC/MS/MS. Plasma samples were protein precipitated by addition of 100 μl of acetonitrile containing 50 ng/ml of internal standard. The resulting mixture was vortexed and centrifuged at 4000 RPM for 5 minutes. […]

[1] = mice, splenocytes, Western blot, 6 hours

Row | SMILES | ITK (%) 90 mpk PO, 6 h | ITK degradation in vivo at 6 hours (FIG. 3A, FIG. 4A) [1] | ITK degradation in vivo at 6 hours (FIG. 2) (mice, 90 mg/kg PO, splenocytes, Western blot, 6 hours)
1 | CN(C(=O)CN1CCC2(CC1)CCN(c1ccc3c(c1)C(=O)N(C1CCC(=O)NC1=O)C3=O)C2)c1ccc2cc(-c3n[nH]c4c3C[C@@H]3C(F)(F)[C@]3(C)C4)[nH]c2c1 (stereo partly drawn) [Compound 72, N-(2-((4aS,5aR)-5,5-difluoro-5a-methyl-1,4,4a,5,5a,6-hexahydrocyclopropa[f]indazol-3-yl)-1H-indol-6-yl)-2-(2-(2-(2,6-dioxopiperidin-3-yl)-1,3-dioxoisoindolin-5-yl)-2,8-diazaspiro[4.5]decan-8-yl)-N-methylacetamide] | 116% |  | 
2 | CN(C(=O)CCN1CCN(c2ccc3c(c2)C(=O)N(C2CCC(=O)NC2=O)C3=O)CC1)c1ccc2cc(-c3n[nH]c4c3CCC(C)(C)C4)[nH]c2c1 (centres unmarked) [Compound 2, N-(2-(6,6-dimethyl-4,5,6,7-tetrahydro-1H-indazol-3-yl)-1H-indol-6-yl)-3-(4-(2-(2,6-dioxopiperidin-3-yl)-1,3-dioxoisoindolin-5-yl)piperazin-1-yl)-N-methylpropanamide] | 49.3% |  | 
3 | C[C@@]12Cc3[nH]nc(C(=O)Nc4cnn(CC5CN(C(=O)C6CN(c7ccc8c(c7)C(=O)N(C7CCC(=O)NC7=O)C8=O)C6)C5)c4)c3C[C@@H]1C2(F)F (stereo partly drawn) [Compound 43, (4aS,5aR)-N-(1-((1-(1-(2-(2,6-dioxopiperidin-3-yl)-1,3-dioxoisoindolin-5-yl)azetidine-3-carbonyl)azetidin-3-yl)methyl)-1H-pyrazol-4-yl)-5,5-difluoro-5a-methyl-1,4,4a,5,5a,6-hexahydrocyclopropa[f]indazole-3-carboxamide] | 7% | degraded ITK in vivo | 
4 | C[C@@H](C(=O)N(C)c1ccc2cc(-c3n[nH]c4c3CCC(C)(C)C4)[nH]c2c1)N1CCN(C[C@H]2CCN(c3ccc4c(c3)C(=O)N(C3CCC(=O)NC3=O)C4=O)C2)CC1 (stereo partly drawn) [Compound 33, (2S)—N-(2-(6,6-dimethyl-4,5,6,7-tetrahydro-1H-indazol-3-yl)-1H-indol-6-yl)-2-(4-(((3R)-1-(2-(2,6-dioxopiperidin-3-yl)-1,3-dioxoisoindolin-5-yl)pyrrolidin-3-yl)methyl)piperazin-1-yl)-N-methylpropanamide] | 67% |  | 
5 | CC1(C)CCc2c(-c3cc4ccc(N5CCC6(CCN(CC7CCN(c8ccc(C9CCC(=O)NC9=O)cn8)CC7)CC6)C5=O)cc4[nH]3)n[nH]c2C1 (centres unmarked) [Compound 22, 3-(6-(4-((2-(2-(6,6-dimethyl-4,5,6,7-tetrahydro-1H-indazol-3-yl)-1H-indol-6-yl)-1-oxo-2,8-diazaspiro[4.5]decan-8-yl)methyl)piperidin-1-yl)pyridin-3-yl)piperidine-2,6-dione] | 76% |  | 
6 | CN(C(=O)CC1CCN(CC2CCN(c3ccc(C4CCC(=O)NC4=O)cn3)CC2)CC1)c1ccc2cc(-c3n[nH]c4c3C[C@@H]3C(F)(F)[C@]3(C)C4)[nH]c2c1 (stereo partly drawn) [Compound 73, N-(2-((4aS,5aR)-5,5-difluoro-5a-methyl-1,4,4a,5,5a,6-hexahydrocyclopropa[f]indazol-3-yl)-1H-indol-6-yl)-2-(1-((1-(5-(2,6-dioxopiperidin-3-yl)pyridin-2-yl)piperidin-4-yl)methyl)piperidin-4-yl)-N-methylacetamide] | 92% |  | 
7 | CN(C(=O)CC1CCN(CC2CCN(c3ccc(C(=O)NC4CCC(=O)NC4=O)nc3)CC2)CC1)c1ccc2cc(-c3n[nH]c4c3C[C@@H]3C(F)(F)[C@]3(C)C4)[nH]c2c1 (stereo partly drawn) [Compound 75, 5-(4-((4-(2-((2-((4aS,5aR)-5,5-difluoro-5a-methyl-1,4,4a,5,5a,6-hexahydrocyclopropa[f]indazol-3-yl)-1H-indol-6-yl)(methyl)amino)-2-oxoethyl)piperidin-1-yl)methyl)piperidin-1-yl)-N-(2,6-dioxopiperidin-3-yl)picolinamide] | 137% |  | 
8 | C[C@@H](C(=O)N(C)c1ccc2cc(-c3n[nH]c4c3C[C@@H]3C(F)(F)[C@]3(C)C4)[nH]c2c1)N1CCN(CC2CCN(c3cccc4c3n(C)c(=O)n4C3CCC(=O)NC3=O)CC2)CC1 (stereo partly drawn) [Compound 65, (2S)—N-(2-((4aS,5aR)-5,5-difluoro-5a-methyl-1,4,4a,5,5a,6-hexahydrocyclopropa[f]indazol-3-yl)-1H-indol-6-yl)-2-(4-((1-(1-(2,6-dioxopiperidin-3-yl)-3-methyl-2-oxo-2,3-dihydro-1H-benzo[d]imidazol-4-yl)piperidin-4-yl)methyl)piperazin-1-yl)-N-methylpropanamide] | 58% |  | 
9 | CN(C(=O)CCC1CCN(c2ccc3c(c2)C(=O)N(C2CCC(=O)NC2=O)C3=O)C1)c1ccc2cc(-c3n[nH]c4c3CCC(C)(C)C4)[nH]c2c1 (centres unmarked) [Compound 1, N-(2-(6,6-dimethyl-4,5,6,7-tetrahydro-1H-indazol-3-yl)-1H-indol-6-yl)-3-(1-(2-(2,6-dioxopiperidin-3-yl)-1,3-dioxoisoindolin-5-yl)pyrrolidin-3-yl)-N-methylpropanamide] | 153% |  | degraded ITK in vivo
10 | C[C@@H](C(=O)N(C)c1ccc2cc(-c3n[nH]c4c3CCC(C)(C)C4)[nH]c2c1)N1CCN(CC2CCN(c3ccc(N4CCC(=O)NC4=O)cn3)CC2)CC1 [Compound 11, (S)—N-(2-(6,6-dimethyl-4,5,6,7-tetrahydro-1H-indazol-3-yl)-1H-indol-6-yl)-2-(4-((1-(5-(2,4-dioxotetrahydropyrimidin-1(2H)-yl)pyridin-2-yl)piperidin-4-yl)methyl)piperazin-1-yl)-N-methylpropanamide] | 116% | degraded ITK in vivo | 
11 | C[C@@]12Cc3[nH]nc(-c4cc5ccc(N6CCC7(CCN(Cc8ccc9c(c8)C(=O)N(C8CCC(=O)NC8=O)C9=O)CC7)C6=O)cc5[nH]4)c3C[C@@H]1C2(F)F (stereo partly drawn) [Compound 15, 5-((2-(2-((4aS,5aR)-5,5-difluoro-5a-methyl-1,4,4a,5,5a,6-hexahydrocyclopropa[f]indazol-3-yl)-1H-indol-6-yl)-1-oxo-2,8-diazaspiro[4.5]decan-8-yl)methyl)-2-(2,6-dioxopiperidin-3-yl)isoindoline-1,3-dione hydrochloride] | 18.3% |  | 
